Columns and labels:
CW2 = experiment: Growth inhibition, CyQUANT Direct Cell Proliferation Assay, CW2; type: cell-based; conditions: Homo sapiens, CW-2; CW2 cells, 120 to 168 hours
Experimental: (§1) SKCO1, LS180, and LS174T cell lines were purchased from ATCC. CW2 cell line was purchased from Riken. GP2D cell line was purchased from Sigma/ECACC. All cell lines were cultured in manufacturer's recommended media at 37° C., 5% CO2. Briefly, cells were suspended in 200 μL of media and seeded at 300 to 1,800 cells per well in tissue culture treated 96-well plates with black walls and clear bottom. Plates were incubated overnight and initial (TO) read was performed the following day using CyQUANT Direct Cell Proliferation Assay Kit (Thermo Fisher Scientific) according to manufacturer's protocol. All compounds were solubilized in DMSO and prepared at 3-fold serial dilution, using 9 points starting at 30 μM as highest concentration, administered to cells and incubated for 120 to 168 hours, at which point CyQUANT assay measurement was performed using Acumen Cellista instrument (Ex/Em 480/520 nm). Media-only wells were used as blank, and 0.3% DMSO was used as DMSO-treated cell control. Growth inhibition (percent response) was calculated using the following formula in Excel: “=if ([Compound treated Day N]>[Untreated Day 0, AVG], ([Compound treated Day N]− [Untreated Day 0, AVG])/([Untreated Day N]−[Untreated Day 0, AVG])*100, ([Compound Treated Day N]−[Untreated Day 0, AVG])/([Untreated Day 0, AVG])*100)”. GI50 is the response corresponding to the 50% of untreated control.
(§2) GI50 data are reported in Tables 4a, 4b, 4c, 4d, and 4e for compounds in Table 1. In Tables 4a, 4b, 4c, 4d, and 4e below, According to the code, A represents a GI50 value of ≤0.1 μM, B represents a GI50 value >0.1 μM and ≤1 μM, C represents an GI50 value >1 μM.

LS174T = experiment: Growth inhibition, CyQUANT Direct Cell Proliferation Assay, LS174T; type: cell-based; conditions: Homo sapiens; LS174T cells, 120 to 168 hours
Experimental: as §1, §2

CK1α = target: T1, CK1α (Homo sapiens, UniProt P48729+Q96SW2); experiment: CK1α NanoBit Assay (HiBiT-tagged CSNK1A1 in HEK293 cells, luminescence); type: cell-based; conditions: 24 h
T1 construct: HEK293 clonal lines with CRISPR KI HiBiT tag on CSNK1A1; host or cells: HEK293 clonal line, CRISPR knock-in HiBiT at the CSNK1A1 locus, stably expressing LgBiT
Method in brief: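 HEK293 with endogenous HiBiT-tagged CSNK1A1 and stable LgBiT, live-cell Endurazine substrate; compound added at 10 or 30 μM final top concentration after 16 h plating, then 24 h at 37 °C. Luminescence normalised to plate controls; DC50 by 3-parameter logistic fit, hill slope 1.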

GP2D = experiment: Growth inhibition, CyQUANT Direct Cell Proliferation Assay, GP2D; type: cell-based; conditions: GP2D cells, 120 to 168 hours
Experimental: as §1, §2

SKCO1 = experiment: Growth inhibition, CyQUANT Direct Cell Proliferation Assay, SKCO1; type: cell-based; conditions: Homo sapiens, SK-CO-1; SKCO1 cells, 120 to 168 hours
Experimental: as §1, §2

CRBN/DDB1 = CRBN/DDB1 (Homo sapiens, UniProt Q96SW2); experiment: HTRF binding assay (displacement of Cy5-thalidomide probe from CRBN/DDB1); conditions: CRBN/DDB1 2.5 nM, Cy5-Thalidomide 100 nM, 30 min; geometric mean; read-out: HTRF_Thali_Disp_DR_geo_IC50
Method in brief: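 HTRF displacement of Cy5-thalidomide probe (100 nM) from His-tagged CRBN/DDB1 (2.5 nM) with anti-His terbium cryptate, in HEPES/NaCl/TCEP/EDTA/Tween20 buffer; 10-point 1:3 series, 30 min at ambient temperature. 665/620 nm ratio fitted 4-parameter logistic for IC50; Ki via Cheng-Prusoff.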

LS180 = experiment: Growth inhibition, CyQUANT Direct Cell Proliferation Assay, LS180; type: cell-based; conditions: Homo sapiens; LS180 cells, 120 to 168 hours
Experimental: as §1, §2

T1 sequence (P48729 whole entry): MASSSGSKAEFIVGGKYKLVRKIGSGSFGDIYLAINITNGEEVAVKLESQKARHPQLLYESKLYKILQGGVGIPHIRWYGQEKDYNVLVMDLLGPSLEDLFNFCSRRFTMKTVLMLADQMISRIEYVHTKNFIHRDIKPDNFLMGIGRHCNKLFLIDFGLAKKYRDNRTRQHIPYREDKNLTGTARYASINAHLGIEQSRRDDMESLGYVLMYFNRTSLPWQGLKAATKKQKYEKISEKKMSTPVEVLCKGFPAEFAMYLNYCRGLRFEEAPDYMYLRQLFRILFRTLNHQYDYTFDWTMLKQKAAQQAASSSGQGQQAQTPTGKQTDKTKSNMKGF
T1 sequence (Q96SW2 whole entry): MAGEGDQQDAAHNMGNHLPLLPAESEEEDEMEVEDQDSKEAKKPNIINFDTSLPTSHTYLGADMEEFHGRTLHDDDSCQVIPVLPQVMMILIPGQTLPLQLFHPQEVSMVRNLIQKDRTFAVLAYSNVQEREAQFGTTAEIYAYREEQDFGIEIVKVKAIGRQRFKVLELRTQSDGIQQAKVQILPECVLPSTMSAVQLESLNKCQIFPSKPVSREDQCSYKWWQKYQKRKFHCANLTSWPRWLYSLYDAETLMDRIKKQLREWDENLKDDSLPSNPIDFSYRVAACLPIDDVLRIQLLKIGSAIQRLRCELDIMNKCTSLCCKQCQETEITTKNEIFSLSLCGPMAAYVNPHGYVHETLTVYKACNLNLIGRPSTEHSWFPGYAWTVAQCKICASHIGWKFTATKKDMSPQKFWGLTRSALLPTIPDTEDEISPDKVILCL
T1 sequence (Q16531 whole entry partner): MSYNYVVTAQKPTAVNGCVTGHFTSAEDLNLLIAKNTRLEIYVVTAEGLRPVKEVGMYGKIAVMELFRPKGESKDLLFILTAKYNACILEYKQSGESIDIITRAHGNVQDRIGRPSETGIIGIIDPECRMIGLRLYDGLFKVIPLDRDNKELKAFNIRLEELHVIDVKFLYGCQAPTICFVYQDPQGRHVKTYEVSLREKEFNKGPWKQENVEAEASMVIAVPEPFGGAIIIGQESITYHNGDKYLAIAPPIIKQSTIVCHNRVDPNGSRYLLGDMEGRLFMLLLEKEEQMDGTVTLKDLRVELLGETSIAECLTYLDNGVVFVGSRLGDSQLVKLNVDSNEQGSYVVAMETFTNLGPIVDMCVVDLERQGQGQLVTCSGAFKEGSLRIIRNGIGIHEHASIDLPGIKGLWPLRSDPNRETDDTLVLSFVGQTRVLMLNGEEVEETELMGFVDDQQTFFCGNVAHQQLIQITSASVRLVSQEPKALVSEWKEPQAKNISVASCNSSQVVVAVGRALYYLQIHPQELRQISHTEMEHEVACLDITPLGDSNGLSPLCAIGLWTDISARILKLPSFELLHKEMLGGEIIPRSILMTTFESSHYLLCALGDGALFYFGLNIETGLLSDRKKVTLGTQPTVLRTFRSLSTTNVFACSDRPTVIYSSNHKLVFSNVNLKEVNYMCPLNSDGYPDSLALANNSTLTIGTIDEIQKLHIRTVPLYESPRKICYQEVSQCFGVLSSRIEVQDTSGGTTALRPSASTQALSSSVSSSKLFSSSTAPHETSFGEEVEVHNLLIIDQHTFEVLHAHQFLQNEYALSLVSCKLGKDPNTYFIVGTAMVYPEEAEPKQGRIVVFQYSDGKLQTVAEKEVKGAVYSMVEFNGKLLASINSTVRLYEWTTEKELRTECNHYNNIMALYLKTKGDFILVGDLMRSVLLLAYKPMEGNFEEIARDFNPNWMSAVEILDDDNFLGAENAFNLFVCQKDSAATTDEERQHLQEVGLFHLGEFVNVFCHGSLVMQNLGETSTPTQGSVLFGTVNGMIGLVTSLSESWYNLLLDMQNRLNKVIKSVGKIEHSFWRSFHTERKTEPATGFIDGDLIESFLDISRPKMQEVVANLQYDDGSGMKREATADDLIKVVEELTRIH
CRBN/DDB1, sequence (Q96SW2 whole entry): as the sequence (Q96SW2 whole entry) above
CRBN/DDB1, sequence (Q16531 whole entry partner): as the sequence (Q16531 whole entry partner) above

DC50 (CK1α): ≤ 0.1 µM
GI50 (SKCO1): 100 to 1000 nM
IC50 (CRBN/DDB1): 100 to 1000 nM
SMILES: Cc1ccc(N2CCN(c3ccc4c(c3)CN(C3CCC(=O)NC3=O)C4=O)C2=O)cn1 (stereo not shown) [Compound 104, 3-(5-(3-(6-methylpyridin-3-yl)-2-oxoimidazolidin-1-yl)-1-oxoisoindolin-2-yl)piperidine-2,6-dione]
GI50 (CW2): 100 to 1000 nM
GI50 (LS174T): 100 to 1000 nM
GI50 (GP2D): 100 to 1000 nM
GI50 (LS180): 100 to 1000 nM
